Results on one compound are retold here after publication PMC11249239 (PLOS ONE, 2024).

As usually defined, the EC50 is the concentration giving half of the maximal effect.

The experiment has as its system MCF10A normal breast epithelial cells. Briefly: Cell growth inhibition (CCK8 cytotoxicity assay), MCF10A. It is filed as cell-based. The following applies: Homo sapiens, MCF-10A, 48 h treatment, read-out: Average EC50 ± SD, cell growth inhibition. Background: Tetrazolium assays rely on reduction of a dye to a coloured formazan, in cell work by metabolically active cells.

With `O=C(CCCCCCC(=O)Nc1ccccc1)NO` [SAHA, reference compound], the EC50 came out at 10.1 ± 0.982 µM.
